Data on five compounds can be found in US9388163B2, “Multifunctional radical quenchers for the treatment of mitochondrial dysfunction” (Arizona Board of Regents, a Body Corporate of the State of …, priority 2011, dated 2016).

Where only a bound is given, the exact number is not on record here.

The test system of one data set is FRDA lymphocyte. The experiment in a line: Mitochondrial bioenergetics assessment: total cellular ATP content. It is filed as cell-based. The following applies: for cellular ATP levels: after forty hours, at lower concentration (FIG. 3). On the procedure: XI. Mitochondrial Bioenergetics Assessment
The use of CoQ10 analogues and methylene blue analogues to normalize and restore the respiratory chain activities provides valuable therapeutic approach for mitochondrial diseases. The reductions of mitochondrial respiratory chain activity in Friedreich ataxia (FRDA) patients have been reported. The efficiency of oxidative phosphorylation was evaluated in FRDA lymphocyte (GM15850) in presence of tested CoQ10 analogues and methylene blue analogues by measuring total cellular ATP content using (ViaLight®-Plus ATP monitoring reagent kit, Lonza).
FRDA lymphocyte cell lines were obtained from Coriell Cell Repositories. FRDA lymphocytes were cultured under glucose-free media supplemented with galactose for two weeks to force energy production predominantly through oxidative phosphorylation rather than glycolysis. Lymphocytes were cultured in RPMI 1640 medium glucose-free supplemented with 25 mM galactose, 2 mM glutamine and 1% penicillin-streptomycin, and 10%, dialyzed fetal bovine serum FBS (<0.5 μg/mL). Briefly, lymphocytes (2×10^5 cell/mL), were plated (1 mL in 12-well plates) and treated with the test compounds at final concentrations of 50, 125. […] Cells were transferred (100 μL) to 96-well microtiter black-walled cell culture plates. The total intracellular ATP level was measured in a luminator (Clarity™ luminescence microplate reader) with the ATP Bioluminescence Assay Kit (ViaLight®-Plus ATP monitoring reagent kit, Lonza) following the manufacturer's instructions. Carbonyl cyanide-p-trifluormethoxy-phenylhydrazone (FCCP) and oligomycin were used as control for inhibition of ATP synthesis.

For data set [1] the following is noted: James et al. (2005); cited from earlier work.
The test system of data set [2] is bovine heart mitochondrial complex (I, III, IV). Description: NADH oxidase inhibition assay (beef heart submitochondrial particles). The data set is classed as biochemical. Here is the method:
X. NADH Oxidase Inhibition Assay
Beef heart mitochondria were obtained by a large-scale procedure. Inverted submitochondrial particles (SMP) were prepared by the method of Matsuno-Yagi and Hatefi (J. Biol. Chem. 260 (1985), p. 14424), and stored in a buffer containing 0.25 M sucrose and 10 mM Tris-HCl (pH 7.4) at −80° C. Inhibitory effects of compounds on bovine heart mitochondrial complex (I, III, IV) were evaluated. Maximal dimethyl sulfoxide concentration never exceeded 2% and had no influence on the control enzymatic activity. Beef heart SMP were diluted to 0.5 mg/mL. The enzymatic activities were assayed at 30° C. and monitored spectrophotometrically with a Beckman Coulter DU-530 (340 nm, ε=6.22 mM^−1 cm^−1). NADH oxidase activity was determined in a reaction medium (2.5 mL) containing 50 mM Hepes, pH 7.5, containing 5 mM MgCl2. The final mitochondrial protein concentration was 30 μg/mL. After the pre-equilibration of SMP with inhibitor for 5 min, the initial rates were calculated from the linear portion of the traces.

For a further data set, the system named is leukemia CEM lymphocytes. Description: Suppression of lipid peroxidation (C11-BODIPY 581/591, FACS) in DEM-treated cells. The data set is classed as cell-based. Particulars: CEM cells treated with DEM, untreated control 100, treated control 0. On the procedure: (§1) Leukemic CEM cells (ATCC®, catalogue number CRL-2264) were cultured in RPMI (GIBCO, Grand island, NY, USA) with 10% FBS (Fisher Scientific, TX, USA), 2 mM glutamine (HyClone, South Logan, Utah, USA) and 1% penicillin-streptomycin mix antibiotics (Cellgro, Manassas, Va., USA) supplements. Cells were maintained in the log phase at a concentration of between 1×10^5 and 1×10^6 cells/mL.
Measurement of C11-BODIPY^581/591 Oxidation in Cell Culture
Lipid peroxidation in cells was detected by utilizing the oxidant-sensitive lipophilic probe C11 BODIPY^581/591. […] Cells were treated with 500 nM C11 BODIPY^581/591 in phenol red-free RPMI-1640 media and incubated at 37° C. in the dark for 30 minutes. The cells were washed twice with phosphate buffered saline and oxidative stress was induced with 5 mM DEM in phenol red-free RPMI-1640 media for 90 minutes. Treated cells were collected by centrifugation at 300×g for 3 minutes and then washed twice with phosphate buffered saline. Cells were re-suspended in 250 μL of phosphate buffered saline and were analyzed by FACS (FACS Calibur flow cytometer, Becton Dickinson) to monitor the change in intensity of the C11 BODIPY^581/591 green (oxidized) fluorescence signal.

The next data set concerns CEM leukemia cells. Description: Suppression of ROS production (DCFH-DA, flow cytometry) in DEM-treated cells. The data set is classed as cell-based. Particulars: CEM cells treated with DEM, untreated control 100, treated control 0. On the procedure:
as §1
Cellular ROS production can be monitored using 2′,7′-dichlorodihydrofluorescein diacetate (DCFH-DA) (LeBel et al. (1992) Chem. Res. Toxicol. 5, 227-231) (Molecular Probes, Eugene, Oreg., USA), a membrane permeable and oxidant-sensitive fluorescent dye. DCFH-DA is a non-fluorescent derivative of fluorescein that emits fluorescence after being oxidized by hydrogen peroxide and other ROS. The emitted fluorescence is directly proportional to the concentration of hydrogen peroxide. DCFH-DA is nonionic and nonpolar and is easily taken up by cells. Once inside the cell, DCFH-DA is hydrolyzed by cellular esterases to non-fluorescent DCFH which traps the dye in the cell. In the presence of ROS including hydrogen peroxide, DCFH is oxidized to the highly fluorescent compound dichlorofluorescein (DCF). The intracellular DCF fluorescence is used as an index of cellular ROS production.
Cellular oxidative stress was induced by pharmacological depletion of glutathione (GSH) using the chemical diethylmaleate (DEM). […] The compounds tested were prepared by first making stock solutions (1 mM) in dimethylsulfoxide (DMSO). Cells were treated with 5 mM DEM for 30 minutes and collected by centrifugation at 300×g for 3 min and then washed twice with Phosphate Buffer Saline (PBS) (Invitrogen, N.Y., USA). Cells were re-suspended in PBS buffer+10 mM glucose and incubated at 37° C. in the dark for 20 min with 10 μM DCFH-DA. Cells were collected by centrifugation at 300×g for 3 min and then washed twice with PBS buffer. The samples were analyzed immediately by flow cytometry (Becton-Dickinson FACS Caliber), (Cell Quest software, BD Biosciences) using 488 nm excitation laser and FL1-H channel 538 nm emission filter. In each analysis, 10,000 events were recorded after cell debris were electronically gated out. Results obtained were verified by running duplicates and repeating experiments N=3 independent experiments. Authentic hydrogen peroxide was used as a positive control.

Another data set has as its system FRDA cell line. Description: Trypan blue exclusion cell viability assay, DEM-stressed cells. The following applies: FRDA cells stressed with DEM. It is filed as cell-based. On the procedure:
Friedreich's Ataxia lymphocytes and control cells (Coriell, catalogue number […], respectively) were cultured in RPMI (GIBCO, Grand island, NY, USA) with 15% FBS (Fisher Scientific, TX, USA), 2 mM glutamine (HyClone, South Logan, Utah, USA) and 1% penicillin-streptomycin mix antibiotics (Cellgro, Manassas, Va., USA) supplements. Cells were maintained in the log phase at a concentration of between 1×10^5 and 1×10^6 cells/mL.
V. Trypan Blue Cell Viability Assay
Cell viability determined by trypan blue exclusion assay: This technique was used to assess the cytoprotective effects of the invention compounds in cultured cells pharmacologically treated to induce cell death by GSH depletion. DEM was used to deplete cellular GSH and induce oxidative stress. The viability of DEM-treated cells was determined by their ability to exclude the dye trypan blue. Viable cells exclude trypan blue; whereas, non-viable cells take up the dye and stain blue. Briefly, cells were seeded at a density of 1×10^6 cells/mL and treated with different concentrations of the invention compounds. Cells were incubated at 37° C. in a humidified atmosphere of 5% CO2 in air for three hours with 5 mM DEM. Cell viability was determined by staining cells with 0.4% trypan blue using a hemocytometer. At least 500 cells were counted for each experimental group. At the time of assay, >95% of DEM-treated cells were trypan blue positive; whereas, in non-DEM treated control cell cultures >95% cells were viable. Cell viability was expressed as the percentage of control. Data are expressed as means±S.E.M (n=3).

For the compound `CN(C)c1ccc2nc3ccc(=[N+](C)C)cc-3sc2c1` [methylene blue, reference compound], in the data set on FRDA lymphocyte, the “cellular ATP levels” value is listed as “significantly increased cellular ATP levels”.

As for `COC1=C(OC)C(=O)C(C/C=C(\C)CC/C=C(\C)CC/C=C(\C)CC/C=C(\C)CC/C=C(\C)CC/C=C(\C)CC/C=C(\C)CC/C=C(\C)CC/C=C(\C)CCC=C(C)C)=C(C)C1=O` [coenzyme Q10], the “calculated octanol-water partition coefficient” value in data set [1] is listed as > 10^20.

As for `CN(C)c1ccc2nc3ccc(=O)cc-3sc2c1` [CPD-18, 7-(dimethylamino)-3H-phenothiazin-3-one], the “cellular ATP levels” value with FRDA lymphocyte was “significantly increased cellular ATP levels”. Moreover, in the data set on FRDA lymphocyte (at higher concentrations), the “maintaining ATP levels, compared with methylene blue” value was “superior to methylene blue”.

Take `CCCCCCCc1c(C)n(O)c(C)c(OC)c1=O` [CPD-5, 3-heptyl-1-hydroxy-5-methoxy-2,6-dimethylpyridin-4(1H)-one]: the entries for the “NADH oxidase (complex I, III, IV) activity (%)” value in data set [2] (5 μM compound), in data set [2] (10 μM compound) and in data set [2] (l μM compound) were 44.5 ± 3.6%, 33.5 ± 2.2% and 74.5 ± 6.9%, respectively. Further, the “Scavenging activity (%) (lipid peroxidation)” value in the data set with leukemia CEM lymphocytes (1 μM) worked out at 11 ± 1.8%; in the data set with leukemia CEM lymphocytes (2.5 μM) it was 16 ± 1.8%; in the data set on leukemia CEM lymphocytes (5 μM) it was 2.2 ± 2.3%. The “% of scavenging activity (ROS)” value with CEM leukemia cells (0.25 μM) is 21.0 ± 5.5%; with CEM leukemia cells (2.5 μM), 26.4 ± 4.4%; in the data set with CEM leukemia cells (10 μM) it was 0 ± 10%. In the data set with FRDA cell line, this compound showed a viability at 0.1 µM of 12 ± 6%. The compound also had a viability at 0.5 µM in the data set on FRDA cell line of 17 ± 7%. Also, the viability at 2.5 µM with FRDA cell line came to 14 ± 3%.

Turning to `CCCCCCCc1c(C)n(O)c(C)c(N)c1=O` [CPD-3, 3-amino-5-heptyl-1-hydroxy-2,6-dimethylpyridin-4(1H)-one], the “NADH oxidase (complex I, III, IV) activity (%)” value is on record as 76.7 ± 6.9% in data set [2] (5 μM compound), 70.4 ± 5.5% in data set [2] (10 μM compound) and 92.9 ± 10.9% in data set [2] (l μM compound). Moreover, the “Scavenging activity (%) (lipid peroxidation)” value in the data set with leukemia CEM lymphocytes (1 μM) stood at 14 ± 4.1%; in the data set with leukemia CEM lymphocytes (2.5 μM) it was 20 ± 5.4%; in the data set on leukemia CEM lymphocytes (5 μM), 9.6 ± 2.8%. The figures for the “% of scavenging activity (ROS)” value in the data set with CEM leukemia cells (0.25 μM), in the data set on CEM leukemia cells (2.5 μM) and in the data set on CEM leukemia cells (10 μM) were 4.6 ± 5.4%, 42.2 ± 2.9% and 67.0 ± 5.9%, respectively. This compound also registered a viability at 0.1 µM in the data set on FRDA cell line of 19 ± 6%. Also, the viability at 0.5 µM in the data set on FRDA cell line stood at 19 ± 3%. The viability at 2.5 µM in the data set with FRDA cell line worked out at 25 ± 5%.
